Laboratory results taken from paper PMC8219695 (Nature Communications, 2021).
“And” between values parts separate entries of the source, which are not always exact repeats. Equal values may be shown once.

Assays:
Type in all cases: cell-based
hDOR = hDOR (Homo sapiens, UniProt P41143); assay: CAMYEL BRET antagonism assay at hDOR (inhibition of DPDPE); settings: for Antagonist activity at the hDOR (raw signal): individual replicates, Supplementary Figure 9A source data
mDOR = biological target: T1, mDOR (Mus musculus, UniProt P32300); assay: CAMYEL BRET antagonism assay at mDOR (inhibition of DPDPE); settings: for Antagonist activity at the mDOR (raw signal): individual replicates, Supplementary Figure 9B source data
T1 construct: expressed in transfected cells

hKOR = hKOR (Homo sapiens, UniProt P41145); assay: CAMYEL BRET antagonism assay at hKOR (inhibition of U-50,488); settings: for raw BRET response, antagonist activity at the hKOR (Supplementary Figure 10A): vs EC80 U50,488, replicate raw values
[1] = Log[drug] (M) -5, against EC80 DPDPE
[2] = Log[drug] (M) -6, against EC80 DPDPE
[3] = Log[drug] (M) -7, against EC80 DPDPE
[4] = Log[drug] (M) -8, against EC80 DPDPE
[5] = Log[drug] (M) -9, against EC80 DPDPE
[6] = Log[drug] (M) -10, against EC80 DPDPE
[7] = Log[drug] (M) -11, against EC80 DPDPE
[8] = inhibition of reference agonist DPDPE (EC80)

T1 sequence (P32300 whole entry): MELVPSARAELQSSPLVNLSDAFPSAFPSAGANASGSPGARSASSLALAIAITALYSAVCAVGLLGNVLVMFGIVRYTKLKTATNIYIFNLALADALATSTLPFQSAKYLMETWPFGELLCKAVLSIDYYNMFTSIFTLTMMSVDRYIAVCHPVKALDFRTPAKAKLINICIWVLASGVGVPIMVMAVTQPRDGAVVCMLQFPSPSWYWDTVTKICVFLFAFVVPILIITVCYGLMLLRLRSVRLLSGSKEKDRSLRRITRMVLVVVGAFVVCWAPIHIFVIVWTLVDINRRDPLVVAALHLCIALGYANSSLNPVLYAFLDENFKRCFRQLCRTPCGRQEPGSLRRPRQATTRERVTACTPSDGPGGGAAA
Chain of hDOR (P41143 whole entry): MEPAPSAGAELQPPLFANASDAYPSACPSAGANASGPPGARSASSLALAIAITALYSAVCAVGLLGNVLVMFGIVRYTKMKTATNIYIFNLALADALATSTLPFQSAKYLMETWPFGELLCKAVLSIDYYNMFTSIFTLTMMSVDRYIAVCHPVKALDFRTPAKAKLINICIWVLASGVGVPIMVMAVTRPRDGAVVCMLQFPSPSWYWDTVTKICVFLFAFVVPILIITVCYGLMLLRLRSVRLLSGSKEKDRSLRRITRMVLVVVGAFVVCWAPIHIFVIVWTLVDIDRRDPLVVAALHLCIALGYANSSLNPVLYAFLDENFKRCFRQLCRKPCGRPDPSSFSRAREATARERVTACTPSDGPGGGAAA
Chain of hKOR (P41145 whole entry): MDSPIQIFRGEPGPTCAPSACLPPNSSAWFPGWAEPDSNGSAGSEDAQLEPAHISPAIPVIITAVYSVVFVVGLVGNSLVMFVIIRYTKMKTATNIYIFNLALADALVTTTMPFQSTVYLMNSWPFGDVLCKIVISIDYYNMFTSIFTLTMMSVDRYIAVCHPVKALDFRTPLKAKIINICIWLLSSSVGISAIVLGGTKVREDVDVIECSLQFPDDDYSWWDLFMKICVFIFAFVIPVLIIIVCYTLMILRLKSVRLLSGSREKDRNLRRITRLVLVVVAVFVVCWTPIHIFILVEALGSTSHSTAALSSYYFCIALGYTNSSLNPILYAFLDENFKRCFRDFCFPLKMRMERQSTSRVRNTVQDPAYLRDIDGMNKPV

CC[C@@H]1CN2CC[C@@]3(O)C(=Nc4cc(Br)cc(OC)c43)[C@@H]2C[C@@H]1/C(=C\OC)C(=O)OC [11-Br-7OH (24), 11-Br-7OH]
Antagonist activity at the hDOR (raw signal) (hDOR; [1]): 0.02104 and 0.01573 and 0.009966 and -0.01593 and -0.01928 and -0.02427 and 0.02048 and 0.01948 and 0.01559
Antagonist activity at the hDOR (raw signal) (hDOR; [2]): 0.04515 and 0.04385 and 0.04449 and 0.03157 and 0.04067 and 0.05399 and 0.01786 and 0.03044 and 0.02432
Antagonist activity at the hDOR (raw signal) (hDOR; [3]): 0.1057 and 0.11 and 0.09817 and 0.09774 and 0.0895 and 0.09531 and 0.04711 and 0.02047 and 0.02787
Antagonist activity at the hDOR (raw signal) (hDOR; [4]): 0.1076 and 0.1055 and 0.1083 and 0.107 and 0.1014 and 0.09451 and 0.04651 and 0.03638 and 0.03747
Antagonist activity at the hDOR (raw signal) (hDOR; [5]): 0.1047 and 0.1019 and 0.1172 and 0.09234 and 0.1022 and 0.1004 and 0.02352 and 0.04174 and 0.03714
Antagonist activity at the hDOR (raw signal) (hDOR; [6]): 0.1014 and 0.1021 and 0.1072 and 0.1078 and 0.1042 and 0.1009 and 0.03392 and 0.02253 and 0.04348
Antagonist activity at the hDOR (raw signal) (hDOR; [7]): 0.122 and 0.117 and 0.1095 and 0.09539 and 0.09115 and 0.09894 and 0.04038 and 0.02714 and 0.0351
antagonism at hDOR (hDOR; [8]): full inhibition
Antagonist activity at the mDOR (raw signal) (mDOR; [1]): 0.06399 and 0.06291 and 0.07141 and -0.0292 and -0.02688 and -0.02364 and 0.0237 and 0.00593 and 0.00355
Antagonist activity at the mDOR (raw signal) (mDOR; [2]): 0.1505 and 0.1501 and 0.1583 and 0.09131 and 0.07128 and 0.07775 and 0.02237 and 0.03499 and 0.03942
Antagonist activity at the mDOR (raw signal) (mDOR; [3]): 0.2144 and 0.2068 and 0.2165 and 0.1245 and 0.1236 and 0.1249 and 0.06242 and 0.05459 and 0.06232
Antagonist activity at the mDOR (raw signal) (mDOR; [4]): 0.2065 and 0.2182 and 0.2145 and 0.1188 and 0.1346 and 0.1274 and 0.05577 and 0.0581 and 0.03338
Antagonist activity at the mDOR (raw signal) (mDOR; [5]): 0.2158 and 0.2138 and 0.2085 and 0.1371 and 0.1339 and 0.1253 and 0.04145 and 0.04861 and 0.04624
Antagonist activity at the mDOR (raw signal) (mDOR; [6]): 0.2122 and 0.2205 and 0.2303 and 0.1255 and 0.1229 and 0.131 and 0.04756 and 0.04362 and 0.03388
Antagonist activity at the mDOR (raw signal) (mDOR; [7]): 0.208 and 0.2144 and 0.211 and 0.1321 and 0.1264 and 0.1313 and 0.05075 and 0.03733 and 0.04896
antagonism at mDOR (mDOR; [8]): full inhibition
raw BRET response, antagonist activity at the hKOR (Supplementary Figure 10A) (hKOR; Log[drug] (M) -5): 0.01109 and 0.005199 and -0.00757 and 0.006133 and 0.001515 and 0.001933 and 0.02329 and 0.01475 and 0.01349
raw BRET response, antagonist activity at the hKOR (Supplementary Figure 10A) (hKOR; Log[drug] (M) -6): 0.0143 and 0.01072 and 0.01916 and 0.07074 and 0.07832 and 0.07872 and 0.07001 and 0.07357 and 0.05372
raw BRET response, antagonist activity at the hKOR (Supplementary Figure 10A) (hKOR; Log[drug] (M) -7): 0.06437 and 0.07728 and 0.08334 and 0.1589 and 0.1581 and 0.1664 and 0.1453 and 0.1454 and 0.1482
raw BRET response, antagonist activity at the hKOR (Supplementary Figure 10A) (hKOR; Log[drug] (M) -8): 0.1403 and 0.1362 and 0.1374 and 0.1753 and 0.1713 and 0.1791
raw BRET response, antagonist activity at the hKOR (Supplementary Figure 10A) (hKOR; Log[drug] (M) -9): 0.09403 and 0.08676 and 0.08107 and 0.1704 and 0.1868 and 0.1861 and 0.1635 and 0.1852 and 0.1823
raw BRET response, antagonist activity at the hKOR (Supplementary Figure 10A) (hKOR; Log[drug] (M) -10): 0.09782 and 0.1078 and 0.1073 and 0.1956 and 0.1911 and 0.1936 and 0.176 and 0.1692 and 0.1714
raw BRET response, antagonist activity at the hKOR (Supplementary Figure 10A) (hKOR; Log[drug] (M) -11): 0.1073 and 0.09367 and 0.109 and 0.2072 and 0.1833 and 0.1925 and 0.1707 and 0.1895 and 0.1659
antagonism at hKOR (hKOR; inhibition of reference agonist U50,488 (EC80)): full inhibition
